Results on 16 compounds are retold here after PubChem BioAssay AID328 (DTP/NCI, 2004).

The structures appear in SMILES notation. Several values for one entry are separate records, joined by “and”; a condition that tells them apart may be missing. Equal values may be shown once. Inconclusive results and toxic doses are left out.

This assay concerns BDF1 mice, P388 leukemia ip, median survival T/C. Kind of assay: NCI In Vivo Anticancer Drug Screen. Data for tumor model P388 Leukemia (intraperitoneal) in B6D2F1 (BDF1) mice. The following applies: endpoint: median survival time, higher = longer survival. In outline: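 Compound-treated tumour-bearing mice were compared with vehicle-treated controls. Survival was recorded, and the value is the treated-group measurement divided by the control-group measurement (T/C).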

Setting [1] is: dose: 50.0 mg/kg/injection, schedule: Q01DX009 (ip), vehicle: saline with Tween-80.
[2] abbreviates: dose: 100.0 mg/kg/injection, schedule: Q01DX009 (ip), vehicle: saline with Tween-80.
The mark [3] stands for this setting: dose: 200.0 mg/kg/injection, schedule: Q01DX009 (ip), vehicle: saline with Tween-80.
Where [4] appears, read: dose: 50.0 mg/kg/injection, schedule: Q04DX003 (ip), vehicle: saline.
[5] abbreviates: dose: 400.0 mg/kg/injection, schedule: Q01DX009 (ip), vehicle: saline with Tween-80.
Where [6] appears, read: dose: 12.5 mg/kg/injection, schedule: Q01DX009 (ip), vehicle: Klucel (hydroxypropylcellulose) (HPC).
Setting [7] is: dose: 25.0 mg/kg/injection, schedule: Q01DX009 (ip), vehicle: Klucel (hydroxypropylcellulose) (HPC).
The mark [8] stands for this setting: dose: 50.0 mg/kg/injection, schedule: Q01DX009 (ip), vehicle: Klucel (hydroxypropylcellulose) (HPC).
Setting [9] is: dose: 100.0 mg/kg/injection, schedule: Q04DX003 (ip), vehicle: Klucel (hydroxypropylcellulose) (HPC).
Where [10] appears, read: dose: 200.0 mg/kg/injection, schedule: Q04DX003 (ip), vehicle: Klucel (hydroxypropylcellulose) (HPC).
[11] abbreviates: dose: 400.0 mg/kg/injection, schedule: Q04DX003 (ip), vehicle: Klucel (hydroxypropylcellulose) (HPC).

As for `C=COCC(C)C` (tested in a mixture with another compound), the T/C was 105 % of control (dose: 0.19 mg/kg/injection, schedule: Q01DX009 (ip), vehicle: Klucel (hydroxypropylcellulose) (HPC)); 120 % of control (dose: 0.39 mg/kg/injection, schedule: Q01DX009 (ip), vehicle: Klucel (hydroxypropylcellulose) (HPC)); 120 % of control (dose: 0.78 mg/kg/injection, schedule: Q01DX009 (ip), vehicle: Klucel (hydroxypropylcellulose) (HPC)); 104 % of control (dose: 0.78 mg/kg/injection, schedule: Q04DX003 (ip), vehicle: saline); 100 % of control (dose: 1.56 mg/kg/injection, schedule: Q01DX009 (ip), vehicle: Klucel (hydroxypropylcellulose) (HPC)); 109 % of control (dose: 1.56 mg/kg/injection, schedule: Q04DX003 (ip), vehicle: Klucel (hydroxypropylcellulose) (HPC)). Moreover, the T/C is, setting by setting: (dose: 1.56 mg/kg/injection, schedule: Q04DX003 (ip), vehicle: saline) 95 % of control; (dose: 3.12 mg/kg/injection, schedule: Q04DX003 (ip), vehicle: Klucel (hydroxypropylcellulose) (HPC)) 104 % of control; (dose: 3.12 mg/kg/injection, schedule: Q04DX003 (ip), vehicle: saline) 104 % of control; (dose: 4.6 mg/kg/injection, schedule: Q04DX003 (ip), vehicle: saline) 104 % of control; (dose: 6.25 mg/kg/injection, schedule: Q04DX003 (ip), vehicle: Klucel (hydroxypropylcellulose) (HPC)) 113 % of control; (dose: 7.0 mg/kg/injection, schedule: Q04DX003 (ip), vehicle: saline) 109 % of control. The T/C is, setting by setting: (dose: 7.5 mg/kg/injection, schedule: Q01DX001 (ip), vehicle: alcohol) 91 % of control; (dose: 8.75 mg/kg/injection, schedule: Q01DX009 (ip), vehicle: saline with Tween-80) 110 % of control; (dose: 10.0 mg/kg/injection, schedule: Q04DX003 (ip), vehicle: saline) 104 % of control; (dose: 15.0 mg/kg/injection, schedule: Q01DX001 (ip), vehicle: alcohol) 104 % of control; (dose: 17.5 mg/kg/injection, schedule: Q01DX009 (ip), vehicle: saline with Tween-80) 95 % of control; (dose: 30.0 mg/kg/injection, schedule: Q01DX001 (ip), vehicle: alcohol) 104 % of control.

As for `CC(C)CCCCCCCCCCCCC(=O)NCC(=O)NC1C(O)C(O)C(Nc2ncnc3nc[nH]c23)OC1C(O)CO` (stereo not given), the T/C is, setting by setting: (dose: 0.09 mg/kg/injection, schedule: Q01DX010 (ip), vehicle: carboxymethylcellulose (CMC)) 160 % of control; (dose: 0.13 mg/kg/injection, schedule: Q01DX010 (ip), vehicle: steriod suspending solution) 90 % of control; (dose: 0.18 mg/kg/injection, schedule: Q01DX010 (ip), vehicle: carboxymethylcellulose (CMC)) 180 % of control; (dose: 0.37 mg/kg/injection, schedule: Q01DX010 (ip), vehicle: carboxymethylcellulose (CMC)) 175 % of control; (dose: 0.37 mg/kg/injection, schedule: Q01DX010 (ip), vehicle: steriod suspending solution) 165 % of control.

In the case of `CN1c2ccc(Cl)cc2C(=O)NC1c1ccc([N+](=O)[O-])s1` (stereo not given), the T/C was 98 % of control and 110 % of control under setting [1]; 104 % of control and 113 % of control under setting [2]; 112 % of control under setting [3].

Turning to `C1=CC=CCC=C1`, the T/C (dose: 12.5 mg/kg/injection, schedule: Q04DX003 (ip), vehicle: saline) is 100 % of control; the T/C (dose: 25.0 mg/kg/injection, schedule: Q01DX009 (ip), vehicle: saline) was 150 % of control; the T/C (dose: 25.0 mg/kg/injection, schedule: Q04DX003 (ip), vehicle: saline) is 113 % of control; the T/C (dose: 50.0 mg/kg/injection, schedule: Q01DX009 (ip), vehicle: saline) was 111 % of control; the T/C under setting [4] is 109 % of control.

Consider `Cc1ccc(-n2c(O)c(C=N)c(=O)n(-c3ccc(C)cc3)c2=O)cc1`, for which the T/C was 104 % of control under setting [2], 104 % of control under setting [3] and 95 % of control under setting [5].

For the compound `CC(O)C#CC(C)O` (stereo not given), the T/C was 91 % of control under setting [6]; 118 % of control (dose: 12.5 mg/kg/injection, schedule: Q04DX003 (ip), vehicle: Klucel (hydroxypropylcellulose) (HPC)); 91 % of control under setting [7]; 104 % of control (dose: 25.0 mg/kg/injection, schedule: Q04DX003 (ip), vehicle: Klucel (hydroxypropylcellulose) (HPC)); 95 % of control under setting [8]; 109 % of control (dose: 50.0 mg/kg/injection, schedule: Q04DX003 (ip), vehicle: Klucel (hydroxypropylcellulose) (HPC)).

Regarding `O.O.O=c1[nH]cc(CO)c(=O)[nH]1.[NH2-].[NH2-].[Pt+2]`, the T/C runs as follows: (dose: 3.12 mg/kg/injection, schedule: Q01DX009 (ip), vehicle: Klucel (hydroxypropylcellulose) (HPC)) 99 % of control; (dose: 6.25 mg/kg/injection, schedule: Q01DX009 (ip), vehicle: Klucel (hydroxypropylcellulose) (HPC)) 88 % of control; under setting [6], 209 % of control; under setting [7], 248 % of control and 211 % of control; under setting [8], 90 % of control.

Turning to `CC(=O)N1c2ccccc2Sc2cc(C(O)(C(F)(F)F)C(F)(F)F)ccc21`, the T/C is 86 % of control (dose: 25.0 mg/kg/injection, schedule: Q01DX009 (ip), vehicle: saline with Tween-80); 90 % of control under setting [1]; 90 % of control under setting [2].

For `c1ccc2c(c1)CC1C2ON2CCc3ccccc3C12` (stereo not given), the T/C under setting [2] is 91 % of control, the T/C under setting [3] was 97 % of control and the T/C under setting [5] is 109 % of control.

On to `CCOC(=O)Cn1c(C(F)(F)F)nc2nc(Cl)c(Cl)nc21`, for which the T/C runs as follows: (dose: 100.0 mg/kg/injection, schedule: Q04DX003 (ip), vehicle: saline with Tween-80) 110 % of control; (dose: 200.0 mg/kg/injection, schedule: Q04DX003 (ip), vehicle: saline with Tween-80) 110 % of control; (dose: 400.0 mg/kg/injection, schedule: Q04DX003 (ip), vehicle: saline with Tween-80) 110 % of control.

On to `CCOC(=O)CCCl`, for which the T/C (dose: 100.0 mg/kg/injection, schedule: Q01DX001 (ip), vehicle: Klucel (hydroxypropylcellulose) (HPC)) was 95 % of control; the T/C under setting [9] is 100 % of control; the T/C (dose: 200.0 mg/kg/injection, schedule: Q01DX001 (ip), vehicle: Klucel (hydroxypropylcellulose) (HPC)) was 104 % of control; the T/C under setting [10] is 104 % of control; the T/C (dose: 400.0 mg/kg/injection, schedule: Q01DX001 (ip), vehicle: Klucel (hydroxypropylcellulose) (HPC)) was 91 % of control; the T/C under setting [11] was 100 % of control.

`CC[C@H](CC[C@@H](C)[C@H]1CC[C@H]2[C@@H]3CC=C4C[C@@H](O)CC[C@]4(C)[C@H]3CC[C@]12C)C(C)C`: the T/C is 100 % of control under setting [9], 86 % of control under setting [10] and 100 % of control under setting [11].

With `COc1ccc(/C(=C\S(C)(=O)=O)c2cccs2)cc1`, the T/C runs as follows: under setting [1], 88 % of control; under setting [2], 91 % of control; under setting [3], 105 % of control.

With `Cc1cc(N)c(C)c([N+](=O)[O-])c1`, the T/C was 100 % of control under setting [1], 100 % of control under setting [2] and 95 % of control under setting [3].

Take `CC(=O)c1ccccc1-n1c(C)ccc1C`: the T/C is, setting by setting: (dose: 25.0 mg/kg/injection, schedule: Q01DX009 (ip), vehicle: saline + alcohol) 114 % of control; (dose: 50.0 mg/kg/injection, schedule: Q01DX009 (ip), vehicle: saline + alcohol) 122 % of control; under setting [4], 96 % of control; (dose: 100.0 mg/kg/injection, schedule: Q01DX009 (ip), vehicle: saline + alcohol) 116 % of control; (dose: 100.0 mg/kg/injection, schedule: Q04DX003 (ip), vehicle: saline) 119 % of control; (dose: 200.0 mg/kg/injection, schedule: Q01DX009 (ip), vehicle: saline + alcohol) 99 % of control. Besides, the T/C was 92 % of control (dose: 200.0 mg/kg/injection, schedule: Q04DX003 (ip), vehicle: saline) and 97 % of control (dose: 400.0 mg/kg/injection, schedule: Q04DX003 (ip), vehicle: saline).

Regarding `c1cc2c3c(cccc3c1)N1C(=N2)Sc2nc3ccccc3nc21`, the T/C runs as follows: under setting [1], 89 % of control; under setting [2], 89 % of control; under setting [3], 95 % of control.
